Data reported in ChEMBL document CHEMBL5260828, “Amphiphilic glycoconjugates as potential anti-cancer chemotherapeutics” (Eur J Med Chem, 2018).
In brackets after ≈: the same amount, converted by molar mass.

Assays:
[1] = target: Fatty acid synthase (Gallus gallus, UniProt P12276); assay: Inhibition of Fatty acid synthase in chicken liver using [3H]-acetyl CoA as substrate preincubated for 30 mins followed by substrate addition and measured after 10 mins in presence of NADPH by scintillation counting analysis; format: tissue-based
[2] = system: HCT-116; assay: Cytotoxicity against human HCT-116 cells assessed as cell growth inhibition incubated for 72 hrs by celltiter 96 aqueous cell proliferation assay; format: functional, cell-based; conditions: HCT-116, 72 h
[3] = system: HeLa S3; assay: Cytotoxicity against human HeLa S3 cells; format: functional, cell-based; conditions: Homo sapiens, HeLa S3; read-out: IC50
[4] = target: RAC-alpha serine/threonine-protein kinase (Homo sapiens, UniProt P31749); assay: Inhibition of AKT1 (unknown origin) in presence of ATP by ELISA
[5] = system: PC-3; assay: Cytotoxicity against human PC-3 cells assessed as reduction in cell viability incubated for 48 hrs by MTS assay; format: functional, cell-based; conditions: for IC50: PC-3, 48 h; for CC50: PC-3, time 48 hrs
[6] = system: DU-145; assay: Cytotoxicity against human DU-145 cells assessed as reduction in cell viability incubated for 48 hrs by MTS assay; format: functional, cell-based; conditions: for IC50: DU-145, 48 h; for CC50: DU-145, time 48 hrs
[7] = system: MIA PaCa-2; assay: Cytotoxicity against human MIA PaCa-2 cells assessed as reduction in cell viability incubated for 48 hrs by MTS assay; format: functional, cell-based; conditions: for IC50: MIA PaCa-2, 48 h; for CC50: MIA PaCa-2, time 48 hrs
[8] = system: JIMT-1; assay: Cytotoxicity against human JIMT-1 cells assessed as reduction in cell viability incubated for 48 hrs by MTS assay; format: functional, cell-based; conditions: for IC50: JIMT-1, 48 h; for CC50: JIMT-1, time 48 hrs
[9] = system: MDA-MB-231; assay: Cytotoxicity against human MDA-MB-231 cells assessed as reduction in cell viability incubated for 48 hrs by MTS assay; format: functional, cell-based; conditions: for IC50: MDA-MB-231, 48 h; for CC50: MDA-MB-231, time 48 hrs
[10] = system: BT-474; assay: Cytotoxicity against human BT-474 cells assessed as reduction in cell viability incubated for 48 hrs by MTS assay; format: functional, cell-based; conditions: for IC50: BT-474, 48 h; for CC50: BT-474, time 48 hrs
[11] = system: K562; assay: Cytotoxicity against human K562 cells; format: functional, cell-based
[12] = system: A549; assay: Cytotoxicity against human A549 cells incubated for 72 hrs by MTT assay; format: functional, cell-based; conditions: A549, 72 h
[13] = system: MCF7; assay: Cytotoxicity against human MCF7 cells incubated for 48 hrs by MTT assay; format: functional, cell-based; conditions: MCF7, 48 h
[14] = system: SGC-7901; assay: Cytotoxicity against human SGC-7901 cells incubated for 48 hrs by MTT assay; format: functional, cell-based; conditions: SGC-7901, 48 h
[15] = system: A549; assay: Cytotoxicity against human A549 cells incubated for 48 hrs by MTT assay; format: functional, cell-based; conditions: A549, 48 h
[16] = system: HepG2; assay: Cytotoxicity against human HepG2 cells incubated for 48 hrs by MTT assay; format: functional, cell-based; conditions: HepG2, 48 h
[17] = system: HeLa; assay: Cytotoxicity against human HeLa cells incubated for 48 hrs by MTT assay; format: functional, cell-based

Sequence of Fatty acid synthase (P12276 whole entry): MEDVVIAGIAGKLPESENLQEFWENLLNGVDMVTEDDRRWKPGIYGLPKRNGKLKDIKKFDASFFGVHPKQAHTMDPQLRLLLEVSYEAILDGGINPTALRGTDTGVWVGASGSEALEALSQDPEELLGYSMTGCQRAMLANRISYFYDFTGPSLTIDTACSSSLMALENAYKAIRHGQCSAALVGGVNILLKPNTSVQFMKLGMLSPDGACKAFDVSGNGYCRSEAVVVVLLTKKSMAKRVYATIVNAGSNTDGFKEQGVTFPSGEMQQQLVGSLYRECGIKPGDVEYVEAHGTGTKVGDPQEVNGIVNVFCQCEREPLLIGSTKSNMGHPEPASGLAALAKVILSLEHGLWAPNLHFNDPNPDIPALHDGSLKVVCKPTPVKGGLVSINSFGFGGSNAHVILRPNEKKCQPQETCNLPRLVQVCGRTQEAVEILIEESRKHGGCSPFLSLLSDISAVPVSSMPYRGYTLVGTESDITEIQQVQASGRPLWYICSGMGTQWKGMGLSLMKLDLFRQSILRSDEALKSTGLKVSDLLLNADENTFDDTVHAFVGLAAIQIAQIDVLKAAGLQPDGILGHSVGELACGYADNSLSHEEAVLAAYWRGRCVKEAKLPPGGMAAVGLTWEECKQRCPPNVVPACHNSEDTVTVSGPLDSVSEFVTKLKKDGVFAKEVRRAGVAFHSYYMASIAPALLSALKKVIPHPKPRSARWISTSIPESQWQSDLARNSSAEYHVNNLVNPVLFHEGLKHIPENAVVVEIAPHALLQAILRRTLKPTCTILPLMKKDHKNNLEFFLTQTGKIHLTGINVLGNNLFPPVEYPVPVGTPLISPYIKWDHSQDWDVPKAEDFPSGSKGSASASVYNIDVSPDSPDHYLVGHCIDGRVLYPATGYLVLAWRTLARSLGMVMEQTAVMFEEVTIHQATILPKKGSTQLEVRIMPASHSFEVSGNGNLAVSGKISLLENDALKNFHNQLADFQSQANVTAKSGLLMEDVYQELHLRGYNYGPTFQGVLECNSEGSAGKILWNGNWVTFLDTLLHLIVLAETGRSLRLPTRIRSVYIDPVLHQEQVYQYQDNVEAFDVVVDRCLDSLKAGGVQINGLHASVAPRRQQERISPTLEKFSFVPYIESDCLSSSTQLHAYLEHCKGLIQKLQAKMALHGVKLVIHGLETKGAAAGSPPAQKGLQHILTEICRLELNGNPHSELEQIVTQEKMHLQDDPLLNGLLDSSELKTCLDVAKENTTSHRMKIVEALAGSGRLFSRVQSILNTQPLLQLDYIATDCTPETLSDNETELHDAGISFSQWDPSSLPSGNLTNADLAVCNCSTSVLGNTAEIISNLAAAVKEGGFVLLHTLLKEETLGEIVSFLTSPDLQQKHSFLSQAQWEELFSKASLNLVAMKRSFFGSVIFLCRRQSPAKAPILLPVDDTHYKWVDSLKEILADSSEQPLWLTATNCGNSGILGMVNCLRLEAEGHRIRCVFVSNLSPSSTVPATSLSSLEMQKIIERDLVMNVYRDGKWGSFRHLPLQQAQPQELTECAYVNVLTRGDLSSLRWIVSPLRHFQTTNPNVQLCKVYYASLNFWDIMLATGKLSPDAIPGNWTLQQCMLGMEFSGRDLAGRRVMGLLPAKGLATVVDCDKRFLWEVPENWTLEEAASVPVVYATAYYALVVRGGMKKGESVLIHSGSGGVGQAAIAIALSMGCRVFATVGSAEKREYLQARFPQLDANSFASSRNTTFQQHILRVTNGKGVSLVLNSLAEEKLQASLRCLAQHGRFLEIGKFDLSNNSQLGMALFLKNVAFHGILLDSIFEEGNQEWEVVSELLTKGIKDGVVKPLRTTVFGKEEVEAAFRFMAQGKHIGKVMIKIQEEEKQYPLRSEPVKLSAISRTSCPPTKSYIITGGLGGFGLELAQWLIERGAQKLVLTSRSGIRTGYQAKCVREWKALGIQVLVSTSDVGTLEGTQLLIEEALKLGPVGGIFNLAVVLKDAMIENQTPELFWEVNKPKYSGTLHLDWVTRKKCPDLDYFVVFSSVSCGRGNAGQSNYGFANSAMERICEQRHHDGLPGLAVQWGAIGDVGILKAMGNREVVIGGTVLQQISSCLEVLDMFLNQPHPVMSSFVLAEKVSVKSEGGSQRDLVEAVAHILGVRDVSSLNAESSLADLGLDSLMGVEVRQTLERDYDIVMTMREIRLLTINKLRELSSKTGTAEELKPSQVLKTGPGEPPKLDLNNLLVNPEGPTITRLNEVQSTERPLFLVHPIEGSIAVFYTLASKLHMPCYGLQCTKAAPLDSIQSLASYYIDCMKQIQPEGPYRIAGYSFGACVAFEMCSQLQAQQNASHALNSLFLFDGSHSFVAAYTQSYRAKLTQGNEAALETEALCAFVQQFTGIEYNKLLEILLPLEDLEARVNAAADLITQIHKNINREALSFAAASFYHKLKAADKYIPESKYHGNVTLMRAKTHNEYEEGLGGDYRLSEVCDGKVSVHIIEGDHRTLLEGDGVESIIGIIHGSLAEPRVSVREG
Sequence of RAC-alpha serine/threonine-protein kinase (P31749 whole entry): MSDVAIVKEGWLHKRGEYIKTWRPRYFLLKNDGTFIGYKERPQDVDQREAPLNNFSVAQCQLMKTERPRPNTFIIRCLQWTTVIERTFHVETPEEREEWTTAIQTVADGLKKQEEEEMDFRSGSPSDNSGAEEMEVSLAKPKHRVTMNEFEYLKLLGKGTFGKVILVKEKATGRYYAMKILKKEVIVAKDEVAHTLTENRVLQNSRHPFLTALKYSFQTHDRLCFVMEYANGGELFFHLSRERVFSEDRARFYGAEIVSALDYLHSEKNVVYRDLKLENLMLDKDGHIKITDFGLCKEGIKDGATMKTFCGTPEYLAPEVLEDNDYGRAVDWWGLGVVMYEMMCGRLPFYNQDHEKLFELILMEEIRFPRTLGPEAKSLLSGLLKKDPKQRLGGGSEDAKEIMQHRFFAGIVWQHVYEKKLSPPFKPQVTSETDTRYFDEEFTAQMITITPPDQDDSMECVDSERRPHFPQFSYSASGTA

## CC/C=C\C/C=C\C/C=C\CCCCCCCC(=O)OC[C@H](CO[C@@H]1O[C@H](CO[C@H]2O[C@H](CO)[C@H](O)[C@H](O)[C@H]2O)[C@H](O)[C@H](O)[C@H]1O)OC(=O)CCCCCCCCCCCCCCCCC
[1]
  IC50: 15.6 µM

## CO[C@@H]1[C@H](O[C@H]2C[C@]3(O)O[C@H]([C@@H]2C)[C@H](C)[C@H](OC)/C=C(\C)C[C@H](/C=C/C#C[C@H]2C[C@@H]2Cl)OC(=O)[C@H]3C)O[C@@H](C)[C@H]2NC(=O)O[C@]21C
[2]
  IC50: 30 µM

## CO[C@@H]1[C@@H](OC(N)=O)[C@@H](OC)[C@H](O[C@@H]2C[C@H]3O[C@@](O)(C2)[C@H](C)C(=O)O[C@@H](/C=C/C=C/Br)C/C(C)=C/C(=O)C3(C)C)O[C@H]1C
[3]
  IC50: 1.2 µg/mL (≈ 1.78 µM)

## CCCCCCCCCCCCCCCCCC(=O)OCC(COC(=O)CCCCCCCCCCCCCCCCC)O[C@@H]1O[C@H](C(=O)O)[C@@H](O)[C@H](O)[C@H]1O
[4]
  IC50: > 100 µM

## CCCCCCCCCCCCCCCCOC[C@H](CO[C@H]1O[C@H](CNC(=O)CCCc2ccc(N(CCCl)CCCl)cc2)[C@@H](O)[C@H](O)[C@H]1N)OC
[5]
  IC50: 6 µM
[6]
  IC50: 6 µM
[7]
  IC50: 6 µM
[8]
  IC50: 6 µM
[9]
  IC50: 6 µM
[10]
  IC50: 6 µM

## CC/C=C\C/C=C\C/C=C\CCCCCCCC(=O)OC[C@H](CO[C@@H]1O[C@H](CO[C@H]2O[C@H](CO)[C@H](O)[C@H](O)[C@H]2O)[C@H](O)[C@H](O)[C@H]1O)OC(=O)CCCCCCCCCCCCCCCCCCC
[1]
  IC50: 15.6 µM

## CC(=O)OC[C@H]1O[C@@H](Oc2cc(C)c(O)cc2C/C=C(\C)CC/C=C(\C)C[C@H](C=C(C)C)OC(C)=O)[C@H](O)[C@@H](OC(C)=O)[C@H]1OC(C)=O
[11]
  IC50: 3.1 µg/mL (≈ 4.59 µM)

## CC/C=C\C/C=C\C/C=C\CCCCCCCC(=O)O[C@H](COC(=O)CCCCCCCCCCCCCCC)CO[C@@H]1O[C@H](CO[C@H]2O[C@H](CO)[C@H](O)[C@H](O)[C@H]2O)[C@H](O)[C@H](O)[C@H]1O
[1]
  IC50: 15.6 µM

## CCCCCCCCCCCCCCCCOC[C@H](CO[C@@H]1O[C@H](CN)[C@@H](O)[C@H](O)[C@H]1N)OC
[5]
  CC50: 3.5 µM
[6]
  CC50: 5.2 µM
[7]
  CC50: 3.5 µM
[8]
  CC50: 3.5 µM
[9]
  CC50: 3 µM
[10]
  CC50: 7.5 µM

## CO[C@@H]1/C=C(\C)C[C@H](/C=C/C=C/C#C[C@@H]2C[C@H]2Cl)OC(=O)C[C@]2(O)C[C@H](O[C@@H]3O[C@@H](C)[C@H]4NC(=O)O[C@@]4(C)[C@H]3OC)[C@H](C)[C@@H](O2)[C@@H]1C
[2]
  IC50: 61.9 µM

## CCCCCCCCCCCCC(=O)OCc1cn(C[C@H]2O[C@H](OC)[C@H](O)[C@@H](O)[C@@H]2O)nn1
[12]
  IC50: 21 µM

## CCCCCCCCCCCCCCCCCCCC(=O)O[C@H](COC(=O)CCCCCCCCCCCCCCC)CO[C@@H]1O[C@H](CO[C@H]2O[C@H](CO)[C@H](O)[C@H](O)[C@H]2O)[C@H](O)[C@H](O)[C@H]1O
[1]
  IC50: 15.6 µM

## CCCCCCCCCCCCC(=O)OCc1cn(C[C@H]2O[C@H](OC)[C@H](O)[C@@H](O)[C@H]2O)nn1
[12]
  IC50: 21 µM

## CCCCCCCCCCCCCC(=O)OCc1cn(C[C@H]2O[C@H](OC)[C@H](O)[C@@H](O)[C@H]2O)nn1
[12]
  IC50: 21 µM

## CCCCC[C@@H]1CCCCCCCCCC(=O)O[C@H]2[C@@H](O)[C@H](O[C@H]3[C@H](O1)O[C@H](CO)[C@@H](O)[C@@H]3O)O[C@@H](C)[C@@H]2O[C@@H]1O[C@@H](C)[C@H](O[C@@H]2O[C@@H](C)[C@H](OC(=O)[C@@H](C)CC)[C@@H](OC(=O)/C=C/c3ccccc3)[C@H]2O)[C@@H](O[C@@H]2O[C@@H](C)[C@H](O)[C@@H](O)[C@H]2O)[C@H]1OC(=O)[C@@H](C)CC
[13]
  IC50: 4.28 µM
[14]
  IC50: 4.28 µM
[15]
  IC50: 4.28 µM
[16]
  IC50: 4.28 µM
[17]
  IC50: 4.28 µM

## CCCCCCCCCCCCCC(=O)OCc1cn(C[C@H]2O[C@H](OC)[C@H](O)[C@@H](O)[C@@H]2O)nn1
[12]
  IC50: 21 µM

## COC(C)(C)/C=C/C/C(C)=C/CC/C(C)=C/Cc1cc(O)c(C)cc1O[C@@H]1O[C@H](COC(C)=O)[C@H](OC(C)=O)[C@H](OC(C)=O)[C@H]1O
[11]
  IC50: 9.4 µg/mL (≈ 14.5 µM)

## CCCCCCCCCCCC(=O)OCc1cn(C[C@H]2O[C@H](OC)[C@H](O)[C@@H](O)[C@H]2O)nn1
[12]
  IC50: 21 µM

## CC(=O)OC[C@H]1O[C@@H](Oc2cc(C)c(O)cc2C/C=C(\C)CC/C=C(\C)C[C@@H](O)C=C(C)C)[C@H](O)[C@@H](OC(C)=O)[C@H]1OC(C)=O
[11]
  IC50: 2.6 µg/mL (≈ 4.11 µM)

## CCCCCCCCCCCCCCCCOC[C@H](CO[C@H]1O[C@H](CN)[C@@H](O)[C@H](O)[C@H]1NC(=O)CCCc1ccc(N(CCCl)CCCl)cc1)OC
[5]
  IC50: 6 µM
[6]
  IC50: 6 µM
[7]
  IC50: 6 µM
[8]
  IC50: 6 µM
[9]
  IC50: 6 µM
[10]
  IC50: 6 µM

## CCCCCCCC(=O)O[C@H]1[C@H](O[C@@H]2[C@H]3OC(=O)CCCCCCCCC[C@@H](CCCCC)O[C@@H]4O[C@H](CO)[C@@H](O)[C@H](O)[C@H]4O[C@H](O[C@H]2C)[C@@H]3O)O[C@@H](C)[C@H](O[C@@H]2O[C@@H](C)[C@H](OC(=O)[C@@H](C)CC)[C@@H](OC(=O)/C=C/c3ccccc3)[C@H]2O)[C@H]1O[C@@H]1O[C@@H](C)[C@H](O)[C@@H](O)[C@H]1O
[13]
  IC50: 4.28 µM
[14]
  IC50: 4.28 µM
[15]
  IC50: 4.28 µM
[16]
  IC50: 4.28 µM
[17]
  IC50: 4.28 µM

## CCCCCCCCCCCCCCCCCCC/C=C/C(=O)OC[C@H](CO[C@@H]1O[C@H](CO[C@H]2O[C@H](CO)[C@H](O)[C@H](O)[C@H]2O)[C@H](O)[C@H](O)[C@H]1O)OC(=O)CCCCCCCCCCCCCCCCCCC
[1]
  IC50: 15.6 µM

## CCCCCCCCCC(=O)O[C@H]1[C@H](O[C@@H]2[C@H]3OC(=O)CCCCCCCCC[C@@H](CCCCC)O[C@@H]4O[C@H](CO)[C@@H](O)[C@H](O)[C@H]4O[C@H](O[C@H]2C)[C@@H]3O)O[C@@H](C)[C@H](O[C@@H]2O[C@@H](C)[C@H](O/C(O)=C(/C)CC)[C@@H](O)[C@H]2OC(=O)/C=C/c2ccccc2)[C@H]1O[C@@H]1O[C@@H](C)[C@H](O)[C@@H](O)[C@H]1O
[13]
  IC50: 4.28 µM
[14]
  IC50: 4.28 µM
[15]
  IC50: 4.28 µM
[16]
  IC50: 4.28 µM
[17]
  IC50: 4.28 µM

## CCCCCCCCCC(=O)O[C@H]1[C@H](O[C@@H]2[C@H]3OC(=O)CCCCCCCCC[C@@H](CCCCC)O[C@@H]4O[C@H](CO)[C@@H](O)[C@H](O)[C@H]4O[C@H](O[C@H]2C)[C@@H]3O)O[C@@H](C)[C@H](O[C@@H]2O[C@@H](C)[C@H](OC(=O)[C@@H](C)CC)[C@@H](O)[C@H]2O)[C@H]1O[C@@H]1O[C@@H](C)[C@H](O)[C@@H](O)[C@H]1O
[13]
  IC50: 4.28 µM
[14]
  IC50: 4.28 µM
[15]
  IC50: 4.28 µM
[16]
  IC50: 4.28 µM
[17]
  IC50: 4.28 µM

## CC(=O)OC[C@H]1O[C@@H](Oc2cc(C)c(O)cc2C/C=C(\C)CC/C=C(\C)CCC=C(C)C)[C@H](O)[C@@H](OC(C)=O)[C@H]1OC(C)=O
[11]
  IC50: 5.2 µg/mL (≈ 8.43 µM)

## CCCCCCCCCOC(=O)O[C@H](COC(=O)CCCCCCCCC)COP(=O)(O)O[C@@H]1[C@H](O)[C@H](OP(=O)(O)O)[C@@H](O)[C@H](O)[C@H]1O
[4]
  IC50: > 100 µM

## CCCCCCCCCC(=O)O[C@H]1[C@H](O[C@@H]2[C@H]3OC(=O)CCCCCCCCC[C@@H](CCCCC)O[C@@H]4O[C@H](CO)[C@@H](O)[C@H](O)[C@H]4O[C@H](O[C@H]2C)[C@@H]3O)O[C@@H](C)[C@H](O[C@@H]2O[C@@H](C)[C@H](OC(=O)[C@@H](C)CC)[C@@H](OC(=O)/C=C/c3ccccc3)[C@H]2O)[C@H]1O[C@@H]1O[C@@H](C)[C@H](O)[C@@H](O)[C@H]1O
[13]
  IC50: 4.28 µM
[14]
  IC50: 4.28 µM
[15]
  IC50: 4.28 µM
[16]
  IC50: 4.28 µM
[17]
  IC50: 4.28 µM

## CCCCCCCCCCCC(=O)OCc1cn(C[C@H]2O[C@H](OC)[C@H](O)[C@@H](O)[C@@H]2O)nn1
[12]
  IC50: 21 µM

## CC(=O)OC[C@H]1O[C@@H](Oc2cc(C)c(O)cc2C/C=C(\C)CC/C=C(\C)CC(=O)CC(C)C)[C@H](O)[C@@H](OC(C)=O)[C@H]1OC(C)=O
[11]
  IC50: 8.1 µg/mL (≈ 12.8 µM)

## O=C(O)CCCc1ccc(N(CCCl)CCCl)cc1 [CHLORAMBUCIL]
[5]
  CC50: > 150 µM
[6]
  CC50: > 150 µM
[7]
  CC50: > 150 µM
[8]
  CC50: > 150 µM
[9]
  CC50: > 150 µM
[10]
  CC50: > 150 µM
